Measured values taken from ChEMBL document CHEMBL3856276, “Design, Synthesis, and Biological Evaluation of Novel Tetrahydroprotoberberine Derivatives (THPBs) as Selective α1A-Adrenoceptor Antagonists” (J Med Chem, 2016).

Tests used:
[1] = biological target: T1, Alpha-1A adrenergic receptor (Homo sapiens, UniProt P35348)
T1 sequence (P35348 whole entry): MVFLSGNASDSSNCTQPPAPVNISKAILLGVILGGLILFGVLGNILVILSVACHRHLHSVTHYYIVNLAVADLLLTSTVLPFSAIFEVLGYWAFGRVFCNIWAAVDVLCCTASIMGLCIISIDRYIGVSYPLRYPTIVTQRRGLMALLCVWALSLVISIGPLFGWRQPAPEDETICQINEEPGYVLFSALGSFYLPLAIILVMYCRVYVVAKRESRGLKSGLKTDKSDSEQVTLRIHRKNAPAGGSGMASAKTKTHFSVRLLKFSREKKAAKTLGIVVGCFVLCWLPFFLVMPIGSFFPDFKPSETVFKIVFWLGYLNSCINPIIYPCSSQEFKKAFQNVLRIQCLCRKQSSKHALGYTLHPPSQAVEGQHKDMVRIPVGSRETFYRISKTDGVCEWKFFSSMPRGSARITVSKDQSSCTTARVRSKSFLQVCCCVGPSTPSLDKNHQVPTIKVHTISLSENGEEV
Description: Antagonist activity at human full-length N-terminal SNAP-tagged alpha1A adrenoceptor expressed in HEK293 cells assessed as inhibition of agonist-induced calcium mobilization preincubated for 10 mins followed by agonist addition by fluo-4 AM dye-based assay

[2] = biological target: T2, Alpha-1A adrenergic receptor (Homo sapiens) (UniProt P35348); assay: Antagonist activity at human full-length N-terminal SNAP-tagged alpha1A adrenoceptor expressed in HEK293 cells assessed as inhibition of agonist-induced calcium mobilization at 10 uM preincubated for 10 mins followed by agonist addition by fluo-4 AM dye-based assay relative to control; type: functional, cell-based
T2 sequence (whole entry): T1 sequence (P35348 whole entry)

Compound | IC50 [1] [µM] | inhibition [2] [%]
Fc1ccc2c3c([nH]c2c1)CN1CCc2cc4c(cc2C1C3)OCO4 (stereo not given) | 2.06 | 100
CCC1c2[nH]c3ccccc3c2CC2c3cc4c(cc3CCN21)OCO4 (stereo not given) | > 10 | 82
CCCCOc1cc2c(cc1OC)C1Cc3c([nH]c4ccc(OC)cc34)CN1CC2 (stereo not given) |  | 63
COc1ccc(C2c3[nH]c4ccccc4c3CC3c4cc(OC)c(OC)cc4CCN32)cc1 (stereo not given) |  | 21
COc1cc2c(cc1OC)C1Cc3c([nH]c4ccccc34)C(c3ccc(F)cc3)N1CC2 (stereo not given) |  | 0
COc1cc2c(cc1OC)C1Cc3c([nH]c4ccccc34)C(c3ccccc3)N1CC2 (stereo not given) |  | 0
COc1cc2c(cc1OC)C1Cc3c([nH]c4ccccc34)C(CC(C)C)N1CC2 (stereo not given) |  | 72
CC(C)CC1c2[nH]c3ccccc3c2CC2c3cc4c(cc3CCN21)OCO4 (stereo not given) |  | 0
CCCOc1cc2c(cc1OC)C1Cc3c([nH]c4ccc(OC)cc34)CN1CC2 (stereo not given) |  | 21
c1c2c(cc3c1OCO3)CN1CCc3cc4c(cc3C1C2)OCO4 (stereo not given) | 0.462 | 
CCCCOc1cc2c(cc1OC)CCN1Cc3[nH]c4ccc(OC)cc4c3CC21 (stereo not given) | 2.29 | 98
COc1cc2cc[n+]3c(c2cc1OC)Cc1ccc(OC)c(OC)c1C3 | 7.6 | 
COc1ccc2c(c1OC)CN1CCc3cc4c(cc3[C@@H]1C2)OCO4 [CANADINE] | 5.4 | 
COc1ccc(C2c3[nH]c4ccccc4c3CC3c4cc5c(cc4CCN32)OCO5)cc1 (stereo not given) |  | 0
COc1cc2c(cc1OC)[C@@H]1Cc3ccc(OC)c(OC)c3CN1CC2 |  | 41.2
Fc1ccc(C2c3[nH]c4ccccc4c3CC3c4cc5c(cc4CCN32)OCO5)cc1 (stereo not given) |  | 0
c1ccc(COc2ccc3[nH]c4c(c3c2)CC2c3cc5c(cc3CCN2C4)OCO5)cc1 (stereo not given) | 2.88 | 100

Continued, values first:

IC50 [1] [µM] | inhibition [2] [%] | Compound
> 10 | 80 | COc1ccc(C2c3[nH]c4ccccc4c3CC3c4ccc(OC)cc4CCN32)cc1 (stereo not given)
8.67 | 90 | COc1ccc2c(c1)CCN1C(C)c3[nH]c4ccccc4c3CC21 (stereo not given)
 | 60 | COc1cc2c(cc1OC)C1Cc3c([nH]c4ccccc34)CN1CC2 (stereo not given)
 | 17 | CCOc1cc2c(cc1OC)C1Cc3c([nH]c4ccc(OC)cc34)CN1CC2 (stereo not given)
 | 56 | COc1ccc2[nH]c3c(c2c1)CC1c2cc(O)c(OC)cc2CCN1C3 (stereo not given)
 | 31 | COc1ccc2c(c1)CCN1C2Cc2c([nH]c3ccccc23)C1C1CC1 (stereo not given)
0.552 | 100 | COc1ccc2c(c1)CCN1Cc3[nH]c4ccccc4c3CC21 (stereo not given)
3.19 | 100 | COc1ccc2[nH]c3c(c2c1)C[C@@H]1c2cc4c(cc2CCN1C3)OCO4
 | 75 | CCOc1cc2c(cc1OC)CCN1Cc3[nH]c4ccc(OC)cc4c3CC21 (stereo not given)
 | 0 | COc1ccc2[nH]c3c(c2c1)CC1c2cc(OC)c(O)cc2CCN1C3 (stereo not given)
